Test results: patent US20250090520A1, “DERIVATIVES OF TURBINMICIN AS ANTIFUNGAL AGENTS” (Wisconsin Alumni Research Foundation, priority 2021, published 2025)
In brackets after ≈: the same amount, converted by molar mass. Where two headings read alike, the source gives them in different places.

What was measured:
[1] = system: C. tropicalis 98-234; assay: In vitro MIC susceptibility testing, broth microdilution; assay type: cell-based, Candida tropicalis; details: for MIC: read-out: MIC C. tropicalis 98-234
Method: (§1) In vitro MIC susceptibility testing. […] Six untreated media controls were included on each plate. The plates were incubated at 33° C. for 24 hours. The MICs were determined as the lowest concentration that inhibited visible growth. The MICs were read at 24.

[2] = system: C. albicans K-1; assay: as above; assay type: cell-based, Candida albicans; details: for MIC: Candida albicans, read-out: MIC C. albicans K-1
Method: as §1

[3] = system: C. glabrata 4720; assay: as above; assay type: cell-based, Candida glabrata; details: for MIC: read-out: MIC C. glabrata 4720
Method: as §1

[4] = system: C. auris B 11211; assay: as above; assay type: cell-based, Candida auris; details: for MIC: Candidozyma auris, read-out: MIC C. auris B11211
Method: In vitro MIC susceptibility testing. Turbinmicin analogs of the present disclosure were tested for antifungal activity against four Candida isolates, C. albicans K-1, C. tropicalis 98-234, C. auris B 11211, and C. glabrata 4720, and MICs were determined using a broth microdilution method for yeasts. A turbinmicin analog was dissolved in DMSO, serially diluted to 10 concentrations (0.125-64 μg/mL), and tested in a 96-well plate in RPMI medium. […] Six untreated media controls were included on each plate. The plates were incubated at 33° C. for 24 hours. The MICs were determined as the lowest concentration that inhibited visible growth. The MICs were read at 24.

[5] = system: four Candida isolates, C. albicans K-1, C. tropicalis 98-234, C. auris B 11211, and C. glabrata 4720; assay: In vitro MIC susceptibility testing, positive control over the isolates; assay type: cell-based; details: RPMI medium, 33° C., 24 hours
Method: In vitro MIC susceptibility testing. Turbinmicin analogs of the present disclosure were tested for antifungal activity against four Candida isolates, C. albicans K-1, C. tropicalis 98-234, C. auris B 11211, and C. glabrata 4720, and MICs were determined using a broth microdilution method for yeasts. A turbinmicin analog was dissolved in DMSO, serially diluted to 10 concentrations (0.125-64 μg/mL), and tested in a 96-well plate in RPMI medium. Amphotericin B was used as a positive control and the MICs range were 0.25-1.5 μg/mL. Six untreated media controls were included on each plate. The plates were incubated at 33° C. for 24 hours. The MICs were determined as the lowest concentration that inhibited visible growth. The MICs were read at 24. Results are shown in Table 1 for turbinmicin analog activity against various fungi, including drug-resistant fungi.

[6] = Candida tropicalis, 98234, 24 h
[7] = Nakaseomyces glabratus, 4720, 24 h
[8] = Candida tropicalis, 98234, RPMI medium, 33° C., 24 hours, lowest concentration that inhibited visible growth
[9] = K1, RPMI medium, 33° C., 24 hours, lowest concentration that inhibited visible growth
[10] = Nakaseomyces glabratus, 4720, RPMI medium, 33° C., 24 hours, lowest concentration that inhibited visible growth
[11] = B11211, multidrug-resistant clinical isolate, RPMI medium, 33° C., 24 hours, lowest concentration that inhibited visible growth
[12] = RPMI medium, 33° C., 24 hours, lowest concentration that inhibited visible growth

Compound | MIC [1, 6] | MIC ([2]; K1, 24 h) | MIC [3, 7] | MIC ([4]; B11211, 24 h) | other results
C#CC/N=C1\c2c(O)c3c4c(c2O[C@@H]2[C@H](OC(=O)/C=C/C=C/C=C/C)C=CC[C@@H]12)OCO[C@@H]4C[C@@H]1C(=O)c2cc(C)[nH]c(=O)c2C(=O)[C@]31O [Compound T15] | > 4 µg/mL | > 4 µg/mL | > 4 µg/mL | > 4 µg/mL | 
C/C=C/C=C/C=C/C(=O)O[C@@H]1C=CC[C@H]2/C(=N\C(C)CN3CCOCC3)c3c(O)c4c5c(c3O[C@H]12)OCO[C@@H]5C[C@@H]1C(=O)c2cc(C)[nH]c(=O)c2C(=O)[C@]41O (stereo partly drawn) [Compound T25] | 1 µg/mL (≈ 1.33 µM) | 0.5 µg/mL (≈ 0.663 µM) | 0.5 µg/mL (≈ 0.663 µM) | 0.25 µg/mL (≈ 0.332 µM) | 
C/C=C/C=C/C=C/C(=O)O[C@@H]1C=CC[C@H]2/C(=N/CCCC)c3c(O)c4c5c(c3O[C@H]12)OCO[C@@H]5C[C@@H]1C(=O)c2cc(C)[nH]c(=O)c2C(=O)[C@]41O [Compound T6] |  |  |  |  | MIC [1, 8]: > 4 µg/mL; MIC [2, 9]: > 4 µg/mL; MIC [3, 10]: > 4 µg/mL; MIC [4, 11]: > 4 µg/mL
C=CC/N=C1/c2c(O)c3c4c(c2O[C@@H]2[C@H](OC(=O)/C=C/C=C/C=C/C)C=CC[C@@H]12)OCO[C@@H]4C[C@@H]1C(=O)c2cc(C)[nH]c(=O)c2C(=O)[C@]31O [Compound T5] | 4 µg/mL (≈ 6 µM) | 2 µg/mL (≈ 3 µM) | 4 µg/mL (≈ 6 µM) | 2 µg/mL (≈ 3 µM) | 
C/C=C/C=C/C=C/C(=O)O[C@@H]1C=CC[C@H]2/C(=N/CCO)c3c(O)c4c5c(c3O[C@H]12)OCO[C@@H]5C[C@@H]1C(=O)c2cc(C)[nH]c(=O)c2C(=O)[C@]41O [Compound T7] | > 4 µg/mL | > 4 µg/mL | > 4 µg/mL | > 4 µg/mL | 
C[C@@H]1[C@H](O)[C@@H](C)/C=C/C=C/C=C/C=C/C=C/C=C/C=C/[C@H](O[C@@H]2O[C@H](C)[C@@H](O)[C@H](N)[C@@H]2O)C[C@@H]2O[C@](O)(C[C@@H](O)C[C@@H](O)[C@H](O)CC[C@@H](O)C[C@@H](O)CC(=O)O[C@H]1C)C[C@H](O)[C@H]2C(=O)O [Amphotericin B] |  |  |  |  | MICs range (positive control) [5]: 0.25 to 1.5 µg/mL
Turbinmicin [reference compound] |  |  |  |  | MIC C. tropicalis 98-234 [1, 12]: 0.25 µg/mL; MIC C. albicans K-1 [2, 12]: 0.06 µg/mL; MIC C. glabrata 4720 [3, 12]: 0.13 µg/mL; MIC C. auris B11211 ([4]; multidrug-resistant clinical isolate, RPMI medium, 33° C., 24 hours, lowest concentration that inhibited visible growth): 0.05 µg/mL
C/C=C/C=C/C=C/C(=O)O[C@@H]1C=CC[C@H]2C(=NCCN3CCN(C)CC3)c3c(O)c4c5c(c3O[C@H]12)OCO[C@@H]5C[C@@H]1C(=O)c2cc(C)[nH]c(=O)c2C(=O)[C@]41O [Compound T26] |  |  |  |  | MIC [1, 8]: 0.05 µg/mL (≈ 0.0664 µM); MIC [2, 9]: 0.5 µg/mL (≈ 0.664 µM); MIC [3, 10]: 0.5 µg/mL (≈ 0.664 µM); MIC [4, 11]: 0.03 µg/mL (≈ 0.0399 µM)
C/C=C/C=C/C=C/C(=O)O[C@@H]1C=CC[C@H]2/C(=N/C)c3c(O)c4c5c(c3O[C@H]12)OCO[C@@H]5C[C@@H]1C(=O)c2cc(C)[nH]c(=O)c2C(=O)[C@]41O [Compound T12] | 1 µg/mL (≈ 1.56 µM) | 1 µg/mL (≈ 1.56 µM) | 0.5 µg/mL (≈ 0.78 µM) | > 4 µg/mL | 
C/C=C/C=C/C=C/C(=O)O[C@@H]1C=CC[C@H]2C(=NCCCNC)c3c(O)c4c5c(c3O[C@H]12)OCO[C@@H]5C[C@@H]1C(=O)c2cc(C)[nH]c(=O)c2C(=O)[C@]41O [Compound T18] | 0.75 µg/mL (≈ 1.07 µM) | 1 µg/mL (≈ 1.43 µM) | 0.5 µg/mL (≈ 0.717 µM) | 0.38 µg/mL (≈ 0.545 µM) | 
C/C=C/C=C/C=C/C(=O)O[C@@H]1C=CC[C@H]2C(=NCCN3CCS(=O)(=O)CC3)c3c(O)c4c5c(c3O[C@H]12)OCO[C@@H]5C[C@@H]1C(=O)c2cc(C)[nH]c(=O)c2C(=O)[C@]41O [Compound T24] | 1 µg/mL (≈ 1.27 µM) | 0.75 µg/mL (≈ 0.952 µM) | 1 µg/mL (≈ 1.27 µM) | 0.28 µg/mL (≈ 0.355 µM) | 
C/C=C/C=C/C=C/C(=O)O[C@@H]1C=CC[C@H]2/C(=N/CCc3ccccn3)c3c(O)c4c5c(c3O[C@H]12)OCO[C@@H]5C[C@@H]1C(=O)c2cc(C)[nH]c(=O)c2C(=O)[C@]41O [Compound T13] | > 4 µg/mL | > 4 µg/mL | > 4 µg/mL | > 4 µg/mL | 
C/C=C/C=C/C=C/C(=O)O[C@@H]1C=CC[C@H]2/C(=N/CCN3CCCCC3)c3c(O)c4c5c(c3O[C@H]12)OCO[C@@H]5C[C@@H]1C(=O)c2cc(C)[nH]c(=O)c2C(=O)[C@]41O [Compound T21] | 0.25 µg/mL (≈ 0.339 µM) | 0.25 µg/mL (≈ 0.339 µM) | 0.25 µg/mL (≈ 0.339 µM) | 0.06 µg/mL (≈ 0.0813 µM) | 
C/C=C/C=C/C=C/C(=O)O[C@@H]1C=CC[C@H]2C(=NCCN3CCCC3)c3c(O)c4c5c(c3O[C@H]12)OCO[C@@H]5C[C@@H]1C(=O)c2cc(C)[nH]c(=O)c2C(=O)[C@]41O [Compound T19] | 0.38 µg/mL (≈ 0.525 µM) | 0.5 µg/mL (≈ 0.691 µM) | 0.5 µg/mL (≈ 0.691 µM) | 0.25 µg/mL (≈ 0.345 µM) | 
C/C=C/C=C/C=C/C(=O)O[C@@H]1C=CC[C@H]2C(=NCCCN3CCOCC3)c3c(O)c4c5c(c3O[C@H]12)OCO[C@@H]5C[C@@H]1C(=O)c2cc(C)[nH]c(=O)c2C(=O)[C@]41O [Compound T23] |  |  |  |  | MIC [1, 8]: 1 µg/mL (≈ 1.33 µM); MIC [2, 9]: 1 µg/mL (≈ 1.33 µM); MIC [3, 10]: 1 µg/mL (≈ 1.33 µM); MIC [4, 11]: 0.63 µg/mL (≈ 0.836 µM)
C/C=C/C=C/C=C/C(=O)O[C@@H]1C=CC[C@H]2/C(=N/Cc3ccccc3)c3c(O)c4c5c(c3O[C@H]12)OCO[C@@H]5C[C@@H]1C(=O)c2cc(C)[nH]c(=O)c2C(=O)[C@]41O [Compound T10] |  |  |  |  | MIC [1, 8]: 4 µg/mL (≈ 5.58 µM); MIC [2, 9]: 2 µg/mL (≈ 2.79 µM); MIC [3, 10]: 1 µg/mL (≈ 1.4 µM); MIC [4, 11]: 4 µg/mL (≈ 5.58 µM)
C/C=C/C=C/C=C/C(=O)O[C@@H]1C=CC[C@H]2C(=NCCCCCN3CCOCC3)c3c(O)c4c5c(c3O[C@H]12)OCO[C@@H]5C[C@@H]1C(=O)c2cc(C)[nH]c(=O)c2C(=O)[C@]41O [Compound T27] | 2 µg/mL (≈ 2.56 µM) | 1 µg/mL (≈ 1.28 µM) | 1 µg/mL (≈ 1.28 µM) | 0.5 µg/mL (≈ 0.64 µM) | 
C/C=C/C=C/C=C/C(=O)O[C@@H]1C=CC[C@H]2/C(=N/CCN(C)C)c3c(O)c4c5c(c3O[C@H]12)OCO[C@@H]5C[C@@H]1C(=O)c2cc(C)[nH]c(=O)c2C(=O)[C@]41O [Compound T8] | 0.13 µg/mL (≈ 0.186 µM) | 0.13 µg/mL (≈ 0.186 µM) | 0.25 µg/mL (≈ 0.358 µM) | 0.25 µg/mL (≈ 0.358 µM) | 
